{"source": "ChEMBL document CHEMBL1201862", "about": "“PubChem BioAssay data set” (2004)", "key": {"Bcl-2-related protein A1": {"target": "T1, Bcl-2-related protein A1 (Mus musculus, UniProt Q07440)", "T1 sequence (Q07440 whole entry)": "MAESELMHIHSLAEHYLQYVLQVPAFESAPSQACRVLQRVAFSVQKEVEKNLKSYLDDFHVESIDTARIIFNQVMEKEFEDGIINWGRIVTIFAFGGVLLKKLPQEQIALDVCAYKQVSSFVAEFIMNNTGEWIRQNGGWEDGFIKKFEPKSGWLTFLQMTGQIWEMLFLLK", "type": "functional"}, "[1]": {"target": "T2, Ubiquitin-conjugating enzyme E2 N (Homo sapiens, UniProt P61088)", "T2 sequence (P61088 whole entry)": "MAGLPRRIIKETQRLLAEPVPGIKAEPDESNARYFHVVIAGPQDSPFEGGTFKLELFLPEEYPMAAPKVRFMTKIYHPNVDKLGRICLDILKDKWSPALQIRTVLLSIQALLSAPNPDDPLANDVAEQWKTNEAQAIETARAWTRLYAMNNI", "type": "functional"}, "[2]": {"target": "T2, Ubiquitin-conjugating enzyme E2 N", "type": "functional", "remark": "listed apart in the source"}, "[3]": {"target": "5-hydroxytryptamine receptor 5A (Homo sapiens, UniProt P47898)", "sequence (P47898 whole entry)": "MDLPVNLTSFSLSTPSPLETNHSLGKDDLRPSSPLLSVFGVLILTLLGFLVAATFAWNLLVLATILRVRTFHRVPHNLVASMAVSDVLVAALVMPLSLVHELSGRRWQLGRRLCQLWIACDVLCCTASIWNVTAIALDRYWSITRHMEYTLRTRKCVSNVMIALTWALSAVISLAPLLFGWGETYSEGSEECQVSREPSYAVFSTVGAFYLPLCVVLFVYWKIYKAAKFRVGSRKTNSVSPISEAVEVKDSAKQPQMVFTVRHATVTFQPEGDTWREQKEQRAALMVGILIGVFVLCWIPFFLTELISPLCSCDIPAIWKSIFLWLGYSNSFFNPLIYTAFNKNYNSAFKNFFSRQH", "test": "Counterscreen for agonists of OPRM1-OPRD1 heterodimerization: luminescence-based cell-based high throughput dose response assay to identify agonists of 5-hydroxytryptamine (serotonin) 5A receptor (HTR5A). [Related pubchem assays (depositor defined):AID504326, AID504355, AID504692, AID504904, AID504905]", "type": "functional"}, "[4]": {"target": "T3, Short transient receptor potential channel 4 (Mus musculus, UniProt Q9QUQ5)", "T3 sequence (Q9QUQ5 whole entry)": "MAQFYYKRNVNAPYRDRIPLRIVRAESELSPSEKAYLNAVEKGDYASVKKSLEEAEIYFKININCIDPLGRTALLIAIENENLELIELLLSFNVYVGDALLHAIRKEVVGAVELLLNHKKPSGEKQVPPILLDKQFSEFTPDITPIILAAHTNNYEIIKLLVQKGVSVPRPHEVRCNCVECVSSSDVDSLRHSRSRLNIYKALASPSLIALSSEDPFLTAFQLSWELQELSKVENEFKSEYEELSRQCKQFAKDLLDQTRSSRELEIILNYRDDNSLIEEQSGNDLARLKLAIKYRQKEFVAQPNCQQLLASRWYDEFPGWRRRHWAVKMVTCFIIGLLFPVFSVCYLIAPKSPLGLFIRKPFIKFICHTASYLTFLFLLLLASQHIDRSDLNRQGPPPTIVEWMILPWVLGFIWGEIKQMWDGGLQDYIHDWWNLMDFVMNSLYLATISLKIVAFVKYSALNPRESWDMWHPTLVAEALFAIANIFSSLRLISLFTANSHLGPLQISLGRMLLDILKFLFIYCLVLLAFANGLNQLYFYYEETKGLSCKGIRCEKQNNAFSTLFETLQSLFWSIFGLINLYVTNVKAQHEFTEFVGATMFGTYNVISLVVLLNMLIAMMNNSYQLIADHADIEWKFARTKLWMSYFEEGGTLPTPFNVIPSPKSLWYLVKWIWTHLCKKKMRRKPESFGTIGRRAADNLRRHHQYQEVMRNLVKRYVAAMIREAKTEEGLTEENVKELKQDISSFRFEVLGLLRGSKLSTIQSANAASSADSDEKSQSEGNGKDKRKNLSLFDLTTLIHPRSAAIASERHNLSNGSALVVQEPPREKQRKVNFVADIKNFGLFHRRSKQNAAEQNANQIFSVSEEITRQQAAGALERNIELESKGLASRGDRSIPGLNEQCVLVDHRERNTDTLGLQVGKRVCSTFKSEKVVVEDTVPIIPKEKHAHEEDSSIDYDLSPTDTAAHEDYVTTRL", "test": "mouse TRPC4 channel activators, dose response, cell-based, HEK293 TRPC4/mu-opioid, Fluo-4 calcium (AID 434937)", "type": "functional"}, "Mu-type opioid receptor": {"target": "Mu-type opioid receptor (Homo sapiens, UniProt P35372)", "sequence (P35372 whole entry)": "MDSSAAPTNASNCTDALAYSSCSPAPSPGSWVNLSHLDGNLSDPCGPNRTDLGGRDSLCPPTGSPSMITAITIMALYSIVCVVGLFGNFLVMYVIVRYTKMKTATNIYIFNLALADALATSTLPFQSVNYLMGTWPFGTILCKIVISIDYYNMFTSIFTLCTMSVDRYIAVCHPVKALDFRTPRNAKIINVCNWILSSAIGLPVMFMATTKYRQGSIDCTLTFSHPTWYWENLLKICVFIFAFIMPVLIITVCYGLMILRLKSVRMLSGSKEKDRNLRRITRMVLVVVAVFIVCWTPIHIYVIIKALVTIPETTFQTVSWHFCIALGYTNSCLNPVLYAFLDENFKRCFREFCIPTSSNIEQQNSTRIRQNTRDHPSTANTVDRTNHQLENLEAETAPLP", "test": "(§1) Counterscreen for agonists of heterodimerization of the mu 1 (OPRM1) and delta 1 (OPRD1) opioid receptors: Luminescence-based cell-based high throughput dose response assay to identify agonists of OPRM1 homodimerization.", "type": "functional"}, "[5]": {"target": "Delta-type opioid receptor (Homo sapiens, UniProt P41143)", "sequence (P41143 whole entry)": "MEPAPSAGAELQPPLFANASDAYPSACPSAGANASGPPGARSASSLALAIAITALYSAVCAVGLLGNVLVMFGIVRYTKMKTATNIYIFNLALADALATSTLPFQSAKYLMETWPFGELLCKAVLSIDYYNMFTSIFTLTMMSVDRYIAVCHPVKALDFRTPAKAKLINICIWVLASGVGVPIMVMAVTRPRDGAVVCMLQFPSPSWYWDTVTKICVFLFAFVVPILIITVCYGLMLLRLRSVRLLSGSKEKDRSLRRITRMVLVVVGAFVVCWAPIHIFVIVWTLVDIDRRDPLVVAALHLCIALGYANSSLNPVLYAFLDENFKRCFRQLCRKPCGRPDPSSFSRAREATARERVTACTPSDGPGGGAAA", "test": "as §1, with “of OPRD1” for “of OPRM1”, “homodimerization. [Related pubchem assays (depositor defined):AID504326, AID504355, AID504692, AID504904, AID504905]” for “homodimerization.”", "type": "functional"}, "Cytochrome P450 2C9": {"target": "Cytochrome P450 2C9 (Homo sapiens, UniProt P11712)", "sequence (P11712 whole entry)": "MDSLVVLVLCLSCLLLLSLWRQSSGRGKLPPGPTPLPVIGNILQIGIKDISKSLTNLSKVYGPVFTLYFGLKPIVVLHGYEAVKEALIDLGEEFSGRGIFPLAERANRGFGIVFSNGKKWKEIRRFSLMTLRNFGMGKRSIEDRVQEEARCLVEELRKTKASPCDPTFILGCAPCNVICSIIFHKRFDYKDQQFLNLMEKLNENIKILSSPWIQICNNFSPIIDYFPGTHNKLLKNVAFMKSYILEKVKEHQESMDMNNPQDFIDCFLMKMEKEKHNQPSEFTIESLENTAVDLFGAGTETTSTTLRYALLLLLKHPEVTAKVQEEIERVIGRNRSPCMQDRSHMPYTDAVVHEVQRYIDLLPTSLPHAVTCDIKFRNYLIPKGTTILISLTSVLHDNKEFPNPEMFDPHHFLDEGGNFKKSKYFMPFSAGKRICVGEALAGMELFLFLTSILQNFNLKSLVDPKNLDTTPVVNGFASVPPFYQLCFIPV"}, "[6]": {"target": "T4, Low molecular weight phosphotyrosine protein phosphatase (Homo sapiens, UniProt P24666)", "T4 sequence (P24666 whole entry)": "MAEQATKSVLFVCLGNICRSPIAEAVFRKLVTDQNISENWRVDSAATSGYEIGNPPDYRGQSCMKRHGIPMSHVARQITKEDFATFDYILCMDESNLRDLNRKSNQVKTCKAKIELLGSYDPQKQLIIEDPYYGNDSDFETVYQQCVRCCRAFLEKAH", "type": "functional", "conditions": "read-out: IC50_Mean"}, "[7]": {"test": "Counterscreen for inhibitors of Trypanosoma brucei methionyl tRNA synthetase (MetRS): Luminescence-based cell-based high throughput dose response assay to identify compounds that are cytotoxic to Jurkat human T lymphocyte cells.", "type": "functional"}, "[8]": {"target": "T5, Methionyl-tRNA synthetase, putative (Trypanosoma brucei brucei, UniProt Q38C91)", "T5 sequence (Q38C91 whole entry)": "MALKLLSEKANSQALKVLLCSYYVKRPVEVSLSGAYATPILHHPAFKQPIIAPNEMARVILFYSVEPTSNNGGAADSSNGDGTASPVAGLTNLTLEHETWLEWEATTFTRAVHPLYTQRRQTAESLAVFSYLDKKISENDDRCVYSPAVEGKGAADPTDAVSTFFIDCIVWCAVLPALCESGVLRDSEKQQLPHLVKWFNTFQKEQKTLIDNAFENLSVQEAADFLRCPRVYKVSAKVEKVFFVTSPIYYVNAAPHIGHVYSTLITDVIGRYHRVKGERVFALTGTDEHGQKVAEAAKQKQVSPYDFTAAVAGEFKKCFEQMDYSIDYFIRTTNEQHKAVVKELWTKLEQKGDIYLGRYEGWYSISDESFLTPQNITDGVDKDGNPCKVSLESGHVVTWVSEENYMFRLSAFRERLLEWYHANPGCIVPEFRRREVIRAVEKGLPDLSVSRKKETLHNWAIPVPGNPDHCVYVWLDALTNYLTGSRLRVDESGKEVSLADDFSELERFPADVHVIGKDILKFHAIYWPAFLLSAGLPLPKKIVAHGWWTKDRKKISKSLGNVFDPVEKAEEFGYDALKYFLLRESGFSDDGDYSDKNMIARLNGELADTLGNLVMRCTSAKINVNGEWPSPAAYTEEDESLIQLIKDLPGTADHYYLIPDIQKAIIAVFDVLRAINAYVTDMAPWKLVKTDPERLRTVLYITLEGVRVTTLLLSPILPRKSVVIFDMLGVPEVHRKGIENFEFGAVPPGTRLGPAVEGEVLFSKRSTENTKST", "type": "functional, Trypanosoma brucei brucei strain 927/4 GUTat10.1"}, "[9]": {"target": "T5, Methionyl-tRNA synthetase, putative", "type": "functional, Trypanosoma brucei brucei strain 927/4 GUTat10.1", "remark": "listed apart in the source"}}, "note": "Active and inactive are the calls of the source.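 Wherever IC50 Mean is given: Dose-response confirmation assay measuring inhibition of LMPTP enzyme activity by fluorescence intensity read-out.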", "data": [{"smiles": "COc1cccc(NC(=O)CSc2nc3ccccc3c(=O)n2Cc2cccs2)c1", "values": [{"measurement": "IC50", "setting": "Bcl-2-related protein A1", "value": "> 20 µM (inactive)"}, {"measurement": "IC50", "setting": "[1]", "value": "> 20 µM (inactive)"}, {"measurement": "IC50", "setting": "[2]", "value": "19.3 µM (active)"}]}, {"smiles": "Cc1cccc2cc(C(c3nnnn3Cc3ccccc3)N3CCN(C)CC3)c(O)nc12", "note": "(configuration not stated)", "values": [{"measurement": "EC50", "setting": "[3]", "value": "> 92.5 µM (inactive)"}, {"measurement": "EC50", "setting": "[4]", "value": "1.88 µM (active)"}, {"measurement": "EC50", "setting": "Mu-type opioid receptor", "value": "> 92.5 µM (inactive)"}, {"measurement": "EC50", "setting": "[5]", "value": "> 92.5 µM (inactive)"}]}, {"smiles": "COc1cc(C2C(C#N)=C(N)N(c3sc4c(c3C#N)CCCC4)C3=C2C(=O)CC(C)(C)C3)cc(OC)c1OC", "note": "(configuration not stated)", "values": [{"measurement": "EC50", "setting": "[3]", "value": "> 92.5 µM (inactive)"}, {"measurement": "AC50", "setting": "Cytochrome P450 2C9", "value": "12.6 µM (inconclusive)"}, {"measurement": "EC50", "setting": "Mu-type opioid receptor", "value": "> 92.5 µM (inactive)"}, {"measurement": "EC50", "setting": "[5]", "value": "> 92.5 µM (inactive)"}]}, {"smiles": "C#CCOCCOCCOCCNc1nc(N2CCN(C(=O)[C@H](CCCCN)n3cc(CN)nn3)CC2)nc(N2CCN(C(=O)[C@H](CCCCN)n3cc([C@@H](N)[C@H](C)CC)nn3)CC2)n1", "values": [{"measurement": "IC50", "setting": "Bcl-2-related protein A1", "value": "> 20 µM (inactive)"}, {"measurement": "IC50", "setting": "[1]", "value": "3.13 µM (active)"}, {"measurement": "IC50", "setting": "[2]", "value": "4.49 µM (active)"}]}, {"smiles": "CCOC(=O)C1(Cc2ccccc2)CCN(Cc2cccn2-c2cccnc2)CC1", "values": [{"measurement": "EC50", "setting": "[3]", "value": "> 92.5 µM (inactive)"}, {"measurement": "EC50", "setting": "[4]", "value": "0.841 µM (active)"}, {"measurement": "EC50", "setting": "Mu-type opioid receptor", "value": "> 92.5 µM (inactive)"}, {"measurement": "EC50", "setting": "[5]", "value": "> 92.5 µM (inactive)"}]}, {"smiles": "O=c1cc(-c2ccsc2)oc2cc(-c3ccc4c(c3)OCO4)ccc12", "values": [{"measurement": "IC50", "setting": "[6]", "value": "6.19 µM (active)"}]}, {"smiles": "COC(=O)c1sc(-c2ccc(Cl)cc2)cc1NC(=O)CSCC(=O)O", "values": [{"measurement": "IC50", "setting": "[7]", "value": "83.3 µM (inactive)"}, {"measurement": "IC50", "setting": "[8]", "value": "18.2 µM (inactive)"}, {"measurement": "IC50", "setting": "[9]", "value": "22.5 µM (inactive)"}]}]}
